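Five compound concentrations were applied to cells in 96-well plates for 48 hours; endpoints were derived by simple linear interpolation of the resulting dose-response curve. TGI: total growth inhibition.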
Legend:
Assay in all cases: DTP human tumour cell line panel, 48 h
MOLT-4 leukemia = system: MOLT-4 leukemia
UO-31 renal = system: UO-31 renal
SF-268 CNS = system: SF-268 CNS
HOP-92 NSCLC = system: HOP-92 NSCLC
OVCAR-3 ovarian = system: OVCAR-3 ovarian
CAKI-1 renal = system: CAKI-1 renal
SN12C renal = system: SN12C renal
OVCAR-4 ovarian = system: OVCAR-4 ovarian
SR leukemia = system: SR leukemia
PC-3 prostate = system: PC-3 prostate
UACC-257 melanoma = system: UACC-257 melanoma
COLO 205 colon = system: COLO 205 colon
SF-539 CNS = system: SF-539 CNS
MDA-MB-435 = system: MDA-MB-435
IGROV1 ovarian = system: IGROV1 ovarian
SF-295 CNS = system: SF-295 CNS
SK-MEL-28 melanoma = system: SK-MEL-28 melanoma
SNB-19 CNS = system: SNB-19 CNS
RXF 393 renal = system: RXF 393 renal
NCI/ADR-RES ovarian = system: NCI/ADR-RES ovarian
M14 melanoma = system: M14 melanoma
MCF7 breast = system: MCF7 breast
BT-549 breast = system: BT-549 breast
OVCAR-8 ovarian = system: OVCAR-8 ovarian
MDA-MB-231 breast = system: MDA-MB-231 breast
K-562 leukemia = system: K-562 leukemia
U251 CNS = system: U251 CNS
MALME-3M melanoma = system: MALME-3M melanoma
SW-620 colon = system: SW-620 colon
HL-60(TB) leukemia = system: HL-60(TB) leukemia
CCRF-CEM leukemia = system: CCRF-CEM leukemia
NCI-H23 lung = system: NCI-H23 lung
SK-OV-3 ovarian = system: SK-OV-3 ovarian
LOX IMVI melanoma = system: LOX IMVI melanoma
HS 578T breast = system: HS 578T breast
UACC-62 melanoma = system: UACC-62 melanoma
EKVX NSCLC = system: EKVX NSCLC
ACHN renal = system: ACHN renal
A549 NSCLC = system: A549 NSCLC
HT29 colon = system: HT29 colon
786-0 renal = system: 786-0 renal
HCT-116 colon = system: HCT-116 colon
NCI-H226 lung = system: NCI-H226 lung
SK-MEL-2 melanoma = system: SK-MEL-2 melanoma
HCC-2998 colon = system: HCC-2998 colon
NCI-H522 lung = system: NCI-H522 lung
OVCAR-5 ovarian = system: OVCAR-5 ovarian
NCI-H460 lung = system: NCI-H460 lung
SNB-75 CNS = system: SNB-75 CNS
MDA-N = system: MDA-N
TK-10 renal = system: TK-10 renal
SK-MEL-5 melanoma = system: SK-MEL-5 melanoma
RPMI-8226 leukemia = system: RPMI-8226 leukemia
T-47D breast = system: T-47D breast
HOP-62 NSCLC = system: HOP-62 NSCLC
KM12 colon = system: KM12 colon
HCT-15 colon = system: HCT-15 colon
DU-145 prostate = system: DU-145 prostate
A498 renal = system: A498 renal

`CCN(CC)CCn1c(=O)c2ccccc2n2c3c(=O)n(C)c(=O)n(C)c3nc12` was tested, and the TGI (MOLT-4 leukemia) was 4.73 µM, the TGI (UO-31 renal) was 6.29 µM and the TGI (SF-268 CNS) was 12.1 µM. It also gave a TGI (HOP-92 NSCLC) of 7.85 µM, a TGI (OVCAR-3 ovarian) of 16.4 µM and a TGI (CAKI-1 renal) of 3.91 µM. It also gave a TGI (SN12C renal) of 10.2 µM, a TGI (OVCAR-4 ovarian) of 23.5 µM and a TGI (SR leukemia) of 5.15 µM. It also gave a TGI (PC-3 prostate) of 20.4 µM, a TGI (UACC-257 melanoma) of 16.7 µM and a TGI (COLO 205 colon) of 14.5 µM. It also gave a TGI (SF-539 CNS) of 2.95 µM, a TGI (MDA-MB-435) of 15.9 µM and a TGI (IGROV1 ovarian) of 23.3 µM. It also gave a TGI (SF-295 CNS) of 10.1 µM, a TGI (SK-MEL-28 melanoma) of 18.3 µM and a TGI (SNB-19 CNS) of 38.1 µM. The TGI (RXF 393 renal) was 34.4 µM, the TGI (NCI/ADR-RES ovarian) was 30.2 µM and the TGI (M14 melanoma) was 13 µM. For the same compound, the TGI (MCF7 breast) was 6.2 µM, the TGI (BT-549 breast) was 4.22 µM and the TGI (OVCAR-8 ovarian) was 8.06 µM. It also gave a TGI (MDA-MB-231 breast) of 19.3 µM, a TGI (K-562 leukemia) of 19.4 µM and a TGI (U251 CNS) of 6.03 µM. It also gave a TGI (MALME-3M melanoma) of 10.6 µM, a TGI (SW-620 colon) of 16.1 µM and a TGI (HL-60(TB) leukemia) of 2.5 µM. The TGI (CCRF-CEM leukemia) was 13.1 µM, the TGI (NCI-H23 lung) was 10.1 µM and the TGI (SK-OV-3 ovarian) was 4.77 µM. The TGI (LOX IMVI melanoma) was 31.3 µM, the TGI (HS 578T breast) was 19.6 µM and the TGI (UACC-62 melanoma) was 3.22 µM. It also gave a TGI (EKVX NSCLC) of 11.7 µM, a TGI (ACHN renal) of 1.09 µM and a TGI (A549 NSCLC) of 2.05 µM. For the same compound, the TGI (HT29 colon) was 9.55 µM, the TGI (786-0 renal) was 5.43 µM and the TGI (HCT-116 colon) was 8.71 µM. The TGI (NCI-H226 lung) was 3.35 µM, the TGI (SK-MEL-2 melanoma) was 6.61 µM and the TGI (HCC-2998 colon) was 6.8 µM. For the same compound, the TGI (NCI-H522 lung) was 9 µM, the TGI (OVCAR-5 ovarian) was 7.09 µM and the TGI (NCI-H460 lung) was 1.65 µM. For the same compound, the TGI (SNB-75 CNS) was 7.46 µM, the TGI (MDA-N) was 17.6 µM and the TGI (TK-10 renal) was 52.5 µM. The TGI (SK-MEL-5 melanoma) was 2.94 µM, the TGI (RPMI-8226 leukemia) was 5.94 µM and the TGI (T-47D breast) was 20.8 µM. It also gave a TGI (HOP-62 NSCLC) of 4.62 µM, a TGI (KM12 colon) of 6.03 µM and a TGI (HCT-15 colon) of 66.2 µM. The TGI (DU-145 prostate) was 4.47 µM.

`CNc1ccc(S(=O)Nc2ccc(OC)cc2)cc1` (stereo unspecified) gave a TGI (MOLT-4 leukemia) greater than 100 µM, a TGI (UO-31 renal) of 34.8 µM and a TGI (SF-268 CNS) greater than 100 µM. The TGI (HOP-92 NSCLC) was greater than 100 µM, the TGI (OVCAR-3 ovarian) was greater than 100 µM and the TGI (CAKI-1 renal) was greater than 100 µM. For the same compound, the TGI (SN12C renal) was greater than 100 µM, the TGI (OVCAR-4 ovarian) was greater than 100 µM and the TGI (SR leukemia) was greater than 100 µM. It also gave a TGI (PC-3 prostate) greater than 100 µM, a TGI (UACC-257 melanoma) greater than 100 µM and a TGI (COLO 205 colon) of 91.4 µM. For the same compound, the TGI (SF-539 CNS) was greater than 100 µM, the TGI (MDA-MB-435) was 70.1 µM and the TGI (IGROV1 ovarian) was greater than 100 µM. The TGI (SF-295 CNS) was greater than 100 µM, the TGI (A498 renal) was greater than 100 µM and the TGI (SK-MEL-28 melanoma) was greater than 100 µM. It also gave a TGI (SNB-19 CNS) greater than 100 µM, a TGI (NCI/ADR-RES ovarian) greater than 100 µM and a TGI (M14 melanoma) greater than 100 µM. It also gave a TGI (MCF7 breast) greater than 100 µM, a TGI (BT-549 breast) greater than 100 µM and a TGI (OVCAR-8 ovarian) greater than 100 µM. For the same compound, the TGI (MDA-MB-231 breast) was greater than 100 µM, the TGI (K-562 leukemia) was greater than 100 µM and the TGI (U251 CNS) was greater than 100 µM. It also gave a TGI (MALME-3M melanoma) greater than 100 µM, a TGI (SW-620 colon) greater than 100 µM and a TGI (HL-60(TB) leukemia) greater than 100 µM. It also gave a TGI (CCRF-CEM leukemia) greater than 100 µM, a TGI (NCI-H23 lung) greater than 100 µM and a TGI (SK-OV-3 ovarian) greater than 100 µM. For the same compound, the TGI (LOX IMVI melanoma) was greater than 100 µM, the TGI (HS 578T breast) was greater than 100 µM and the TGI (EKVX NSCLC) was greater than 100 µM. The TGI (ACHN renal) was greater than 100 µM, the TGI (A549 NSCLC) was greater than 100 µM and the TGI (HT29 colon) was greater than 100 µM. For the same compound, the TGI (786-0 renal) was greater than 100 µM, the TGI (HCT-116 colon) was greater than 100 µM and the TGI (NCI-H226 lung) was greater than 100 µM. It also gave a TGI (HCC-2998 colon) greater than 100 µM, a TGI (NCI-H522 lung) greater than 100 µM and a TGI (NCI-H460 lung) greater than 100 µM. For the same compound, the TGI (MDA-N) was greater than 100 µM, the TGI (TK-10 renal) was greater than 100 µM and the TGI (SK-MEL-5 melanoma) was greater than 100 µM. It also gave a TGI (RPMI-8226 leukemia) greater than 100 µM, a TGI (T-47D breast) greater than 100 µM and a TGI (HOP-62 NSCLC) greater than 100 µM. The TGI (KM12 colon) was 22.2 µM, the TGI (HCT-15 colon) was greater than 100 µM and the TGI (DU-145 prostate) was greater than 100 µM.

`COC(=O)C(C)(Cc1ccc2c(c1)nnn2C(C)=O)NC(C)=O` (stereo unspecified) gave a TGI (MOLT-4 leukemia) greater than 100 µM, a TGI (UO-31 renal) greater than 100 µM and a TGI (SF-268 CNS) greater than 100 µM. It also gave a TGI (HOP-92 NSCLC) greater than 100 µM, a TGI (OVCAR-3 ovarian) greater than 100 µM and a TGI (CAKI-1 renal) greater than 100 µM. For the same compound, the TGI (OVCAR-4 ovarian) was greater than 100 µM, the TGI (SR leukemia) was greater than 100 µM and the TGI (PC-3 prostate) was greater than 100 µM. The TGI (UACC-257 melanoma) was greater than 100 µM, the TGI (COLO 205 colon) was greater than 100 µM and the TGI (MDA-MB-435) was greater than 100 µM. For the same compound, the TGI (IGROV1 ovarian) was greater than 100 µM, the TGI (SF-295 CNS) was greater than 100 µM and the TGI (SK-MEL-28 melanoma) was greater than 100 µM. For the same compound, the TGI (SNB-19 CNS) was greater than 100 µM, the TGI (RXF 393 renal) was greater than 100 µM and the TGI (NCI/ADR-RES ovarian) was greater than 100 µM. The TGI (M14 melanoma) was greater than 100 µM, the TGI (MCF7 breast) was greater than 100 µM and the TGI (BT-549 breast) was greater than 100 µM. The TGI (OVCAR-8 ovarian) was greater than 100 µM, the TGI (MDA-MB-231 breast) was greater than 100 µM and the TGI (K-562 leukemia) was greater than 100 µM. The TGI (MALME-3M melanoma) was greater than 100 µM, the TGI (SW-620 colon) was greater than 100 µM and the TGI (HL-60(TB) leukemia) was greater than 100 µM. For the same compound, the TGI (CCRF-CEM leukemia) was greater than 100 µM, the TGI (NCI-H23 lung) was greater than 100 µM and the TGI (SK-OV-3 ovarian) was greater than 100 µM. For the same compound, the TGI (LOX IMVI melanoma) was greater than 100 µM, the TGI (HS 578T breast) was greater than 100 µM and the TGI (UACC-62 melanoma) was greater than 100 µM. For the same compound, the TGI (EKVX NSCLC) was greater than 100 µM, the TGI (ACHN renal) was greater than 100 µM and the TGI (A549 NSCLC) was greater than 100 µM. The TGI (HT29 colon) was greater than 100 µM, the TGI (786-0 renal) was greater than 100 µM and the TGI (HCT-116 colon) was greater than 100 µM. For the same compound, the TGI (NCI-H226 lung) was greater than 100 µM, the TGI (SK-MEL-2 melanoma) was greater than 100 µM and the TGI (HCC-2998 colon) was greater than 100 µM. It also gave a TGI (NCI-H522 lung) greater than 100 µM, a TGI (OVCAR-5 ovarian) greater than 100 µM and a TGI (NCI-H460 lung) greater than 100 µM. The TGI (SNB-75 CNS) was greater than 100 µM, the TGI (MDA-N) was greater than 100 µM and the TGI (TK-10 renal) was greater than 100 µM. For the same compound, the TGI (SK-MEL-5 melanoma) was greater than 100 µM, the TGI (RPMI-8226 leukemia) was greater than 100 µM and the TGI (T-47D breast) was greater than 100 µM. For the same compound, the TGI (KM12 colon) was greater than 100 µM, the TGI (HCT-15 colon) was greater than 100 µM and the TGI (DU-145 prostate) was greater than 100 µM.

Source: PubChem BioAssay (NCI)
